# PMC10042540, “Targeting oncogenic KRasG13C with nucleotide-based covalent inhibitors” (eLife, 2023)
# Key:
# Format in all cases: binding
# nucleotide-free KRas = assay: Stopped-flow competition with mantdGDP (association kinetics); conditions: for kon: 25 °C, 1 µM KRas, 2 µM mantdGDP, 1, 2, 6 µM competing nucleotide, global fit; for koff: calculated kinetic parameter
# Description: The association kinetics of the nucleotide analogues were analyzed with a SX-20 stopped-flow instrument (Applied Photophysics) at 25 °C in a buffer consisting of 25 mM HEPES (pH 7.5), 100 mM NaCl, 1 mM MgCl2, and 0.5 mM TCEP. 1 µM of nucleotide-free KRas ([Müller et al., 2017]) in one syringe was mixed rapidly with 2 µM mantdGDP in the other. In subsequent experiments, the second syringe contained competing nucleotides (1, 2, and 6 µM) in addition to 2 µM mantdGDP. The resulting progress curves were globally fit using KinTek Explorer to obtain the corresponding association rate constants as previously described (Table 1—source data 1, Table 1—source data 2 [Johnson et al., 2009]).
# KRasWT1-169 = KRasWT1-169 (Homo sapiens, UniProt P01116); assay: HPLC-based approach for determination of affinities relative to GDP; conditions: for KA: KA = KA(GDP) x KrelA, GDP from KA = 1/KD; for relative association constant KrelA: relative to GDP
# Description: The relative affinities of the nucleotide analogues were measured using an HPLC-based approach. 50 μM of […] was mixed with 50 μM of the acetamide derivatives and incubated either for 7 days at room temperature in the absence of EDTA, for 24 hr at 4 °C in the presence of 10 mM EDTA, or for 1 hr at room temperature in the presence of SOS in a buffer consisting of 20 mM HEPES (pH 7.5), 100 mM NaCl, 2 mM MgCl2, 1 mM TCEP and 5% glycerol. After incubation, the Ras proteins were washed five times with buffer (15 mL) using centrifugal filter devices to remove any unbound nucleotide, concentrated and analysed by isocratic HPLC runs. The resulting curves were analysed by integrating the corresponding peaks for GDP and the guanosine nucleotide analogues after distinct time points using the Agilent ChemStation Software (Table 1-source data 3, Table 1-source data 4). Based on the percentage distribution determined by the HPLC assay, the relative association constants (KrelA) for […] and bdaGDP could subsequently be calculated. In contrast, the superposition of the GDP signal prevented an exact determination of the relative association constant for […] values of 0.34 and 0.28 relative to GDP were determined for […] and bdaGDP, respectively. […] By rearranging the equilibrium reactions listed in (Equation 1a) and (Equation 1b), the following relationships are obtained for KGDP (Equation 2a) and […] Assuming that the concentration for aGDP used in the HPLC assay is 50 μM, the following GDP concentrations for […] (Equation 3a) and bdaGDP (Equation 3b) can be determined at time t=0 hr using the percentages determined in Table 1-source data 3:(3a) GDPtotal=%GDP/%[…]=37%/63%×50μM=29.4μM (3b) GDPtotal=%GDP/%bdaGDP=43%/57%×50μM=37.7μM The concentrations of the components listed in equation (Equation 2b) can be calculated as follows for […] (Equation 4a, Equation 4b, Equation 4c, Equation 4d) and bdaGDP (Equation 5a, Equation 5b, Equation 5c, Equation 5d) by considering the total GDP concentrations calculated previously:(4[…]]=47/100×29.4μM=13.8μM (4b) [Ras:GDP]=53/100×29.4μM=15.6μ[…]]=50μM-13.8μM=36.2μM (4d) [GDP]=29.4μM-15.6μM=13.8μM (5a) [Ras:bdaGDP]=39.5/100×37.7μM=14.9μM (5b) [Ras:GDP]=60.5/100×37.7μM=22.8μM (5c) [bdaGDP]=50μM-14.9μM=35.1μM (5d) [GDP]=37.7μM-22.8μM=14.9μM The relative association constant KrelA can be calculated by the following formula (Equation 6):(6) […] By inserting the concentrations of each component determined from (Equation 4a, Equation 4b, Equation 4c, Equation 4d) and (Equation 5a, Equation 5b, Equation 5c, Equation 5d) into (Equation 6), the relative association constants KrelA for […] (Equation 10a) and […]=1/0.136pM^-1=7.4pM (10b) KDbdaGDP=1/0.112pM^-1=8.9pM
# [1] = system: T1, KRasG13C1-169 (Cys-light); assay: Covalent modification of protein controlled by ESI-MS
# T1 construct: KRasWT1-169 and KRasG13C1-169 Cys-light (C51S C80L C118S) were expressed in BL21 (DE3) E. coli; hexahistidine (TEV site) (N, cleaved yes); made in house; host or cells: E. coli BL21 (DE3)
# Description: After incubation at room temperature for the appropriate time, the modification of the protein was controlled by ESI-MS. For covalent modification of full-length KRasG13C, a nucleotide exchange with a 10-fold excess of the acryl-bearing nucleotides at pH 7.5 was first performed following incubation at room temperature for 24 h at pH 9.5 for covalent protein modification. Covalent protein modification was controlled by ESI-MS. The MS spectra were recorded on a VelosPro IonTrap (Thermo Scientific) with an EC 50/3 Nucleodur C18 1.8 μm column (Macherey and Nagel) and a gradient of the mobile phase A (0.1% formic acid in water) to B (0.1% formic acid in acetonitrile).
# [2] = -EDTA, 7 days at room temperature
# [3] = worked calculation KD = 1/KA, Equation 10a/10b
# Sequence of KRasWT1-169 (P01116 1-169): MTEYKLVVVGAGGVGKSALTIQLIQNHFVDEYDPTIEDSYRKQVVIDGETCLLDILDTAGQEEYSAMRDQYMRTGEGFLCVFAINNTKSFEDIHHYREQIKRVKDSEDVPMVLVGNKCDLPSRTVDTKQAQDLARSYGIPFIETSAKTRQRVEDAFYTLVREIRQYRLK
"Kd (KRasWT1-169; +SOS, 1 hr at room temperature) [pM]",Kd (KRasWT1-169; [2]) [pM],KA (KRasWT1-169) [pM⁻¹],relative association constant KrelA (KRasWT1-169),Kd (KRasWT1-169; [3]) [pM],SMILES,kon (nucleotide-free KRas) [µM^–1s^–1],koff (nucleotide-free KRas),"covalent labelling of KRasG13C1-169 (Cys-light) ([1]; pH 7.5, after 24 hr)","covalent labelling of KRasG13C1-169 (Cys-light) ([1]; pH 9.5, after 24 hr) [%]"
–,–,–,–,–,"Nc1nc2c(ncn2[C@@H]2O[C@H](COP(=O)(O)OP(=O)(O)OP(=O)(O)O)[C@@H](O)[C@H]2O)c(=O)[nH]1 [GTP, reference compound]",5.23,–,–,–
10.4,8,0.136,0.34,7.4,C=CC(=O)NCCCNC(=O)O[C@H]1[C@@H](O)[C@H](n2cnc3c(=O)[nH]c(N)nc32)O[C@@H]1COP(=O)(O)OP(=O)(O)O [pdaGDP],3.34,2.9x10^–5 s^–1,–,–
–,–,–,–,–,C=CC(=O)NCCCNC(=O)O[C@H]1[C@@H](O)[C@H](n2cnc3c(=O)[nH]c(N)nc32)O[C@@H]1COP(=O)(O)OP(=O)(O)O [acryl-pdaGDP],–,–,slight labelling,~100
10,10,0.112,0.28,8.9,C=CC(=O)NCCCCNC(=O)O[C@H]1[C@@H](O)[C@H](n2cnc3c(=O)[nH]c(N)nc32)O[C@@H]1COP(=O)(O)OP(=O)(O)O [bdaGDP],3.12,3.0x10^–5 s^–1,–,–
–,–,–,–,–,C=CC(=O)NCCCCNC(=O)O[C@H]1[C@@H](O)[C@H](n2cnc3c(=O)[nH]c(N)nc32)O[C@@H]1COP(=O)(O)OP(=O)(O)O [acryl-bdaGDP],–,–,slight labelling,~100
